Measured values taken from patent US7122533B2, “Cosalane compounds and methods for their use” (The United States of America as represented by the …, priority 1999, dated 2006).
pIC50: −log10 of the molar value. Like-named read-outs stand apart in the source and are kept apart here.

Legend:
Format in all cases: cell-based
[1] = target: T1, human CCR3 (Homo sapiens, UniProt P51677); test: eotaxin-induced CCR3/HEK-293 cell migration; conditions: eotaxin-induced CCR3/HEK-293 migration, figures
T1 construct: expressed in transfected cells; host or cells: HEK-293
T1 sequence (P51677 1-355): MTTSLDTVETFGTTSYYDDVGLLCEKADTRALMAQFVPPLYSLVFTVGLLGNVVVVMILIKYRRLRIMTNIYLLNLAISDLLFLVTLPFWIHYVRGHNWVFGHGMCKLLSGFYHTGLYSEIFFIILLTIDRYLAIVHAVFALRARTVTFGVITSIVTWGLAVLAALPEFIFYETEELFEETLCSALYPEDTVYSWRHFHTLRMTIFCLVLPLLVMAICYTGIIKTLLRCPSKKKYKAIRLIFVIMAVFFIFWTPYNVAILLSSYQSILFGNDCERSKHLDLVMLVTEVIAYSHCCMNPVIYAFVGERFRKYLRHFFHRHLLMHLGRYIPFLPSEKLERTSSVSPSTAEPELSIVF
Protocol: (§1) Human embryonic kidney cells 293 (HEK-293) transfected to express human CCR1, CCR3, or CCR5 receptors were cultured in Dulbecco's Modified Eagles Medium (DMEM, Biowhiftaker, Walkersville, Md.) containing 10% Fetal Bovine Serum (FBS, Hyclone, Logan, Utah), 2 mM glutamine and 100 U/ml penicillin and streptomycin (Quality Biologicals, Gaithersburg, Md.). Peripheral blood mononuclear cells were isolated from fresh normal donor apheresis packs by centrifugation over Ficoll. Monocytes were enriched by 85–95% using percoll fractionation (Pharmacia, Piscataway, N.J.).
(§2) The number of cells migrating to the chemokine mixtures was determined for binding media alone, and chemokine treated and untreated cells. HEK-293 cells transfected to express human CCR1, CCR3 or CCR5 receptors were resuspended in binding media at 7.5×10^5 cells/ml. Ten μm polyvinyl-free polycarbonate membranes (Neuro Probe) were treated with 47 ug/ml rat tail collagen type 1 (Collaborative Biomedical Products, Bedford, Md.) in RPMI-1640 overnight, dried and placed over the chemoattractants. The assembled chemotaxis chambers were incubated in a humidified CO2 incubator for 5.5–6 hours. After the incubation, the membranes were removed from the chemotaxis chamber assembly followed by gently removing cells from the upper side of the membrane. The stained and dried membrane was mounted and the cells on the underside of the membrane were counted at 200× magnification. The results are reported as the average number of cells per high powered field at a given chemokine concentration±standard deviation.

[2] = system: MCP-4/CCR2-mediated monocyte migration; test: MCP-4-induced human monocyte migration; conditions: FIG. 3
Protocol: (§3) Monocyte chemotaxis was performed as previously described [Wang (1993) J. Immunol. 150:3022–3029]. Briefly, monocytes were resuspended in binding media (RPMI-1640 media containing 1% BSA, 25 mM HEPES, pH 8.0) at 1–2×10^6 cells/ml. Chemokines, diluted in binding media, were mixed with cosalane or the indicated cosalane analog and placed in the lower wells of a micro-chemotaxis chamber (Neuro Probe, Cabin John, Md.). Five micrometer polyvinyl-free polycarbonate membranes were placed over the chemokine mixtures. After the micro-chemotaxis chamber was assembled, 50 μl of cells were placed in the upper wells. The filled chemotaxis chambers were incubated in a humidified CO2 incubator for 90 minutes.
(§4) After incubating, the membranes were removed from the chemotaxis chamber assembly followed by gently removing the cells from the upper side of the membrane. Then cells on the lower side of the membrane were stained.
as §2
Although MCP-4 is known to bind to CCR2 and CCR3, fresh primary human monocytes only express high levels of CCR2.

[3] = target: T2, human CCR1 (Homo sapiens, UniProt P32246); test: MIP1α-induced migration of CCR1 transfectants; conditions: compound at 1 μM, data not shown
T2 construct: expressed in transfected cells; host or cells: HEK-293
T2 sequence (P32246 1-355): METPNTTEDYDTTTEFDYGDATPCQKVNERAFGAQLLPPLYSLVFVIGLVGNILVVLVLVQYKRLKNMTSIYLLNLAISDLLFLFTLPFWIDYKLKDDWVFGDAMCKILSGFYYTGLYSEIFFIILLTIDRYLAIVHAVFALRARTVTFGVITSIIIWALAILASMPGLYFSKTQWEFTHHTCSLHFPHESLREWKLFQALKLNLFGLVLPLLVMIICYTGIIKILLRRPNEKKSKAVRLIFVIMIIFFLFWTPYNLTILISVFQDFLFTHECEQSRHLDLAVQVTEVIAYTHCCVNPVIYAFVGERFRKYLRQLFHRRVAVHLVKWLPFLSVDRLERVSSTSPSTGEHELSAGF
Protocol: as §1, §2
(§5) The ability of compound 3 to inhibit RANTES-induced migration of human embryonic kidney (HEK) cells transfected to express individual chemokine receptors was initially tested. Although the cosalane analog 3 (1 μM) had no effect on RANTES-induced migration of CCR5 transfectants, it inhibited 50% of RANTES-induced CCR1 transfectant migration (FIG. 2). In contrast, the MIP1α- and MIP1β-induced migration of CCR1 transfectants was not inhibited by compounds 1, 2 or 3 when tested at concentrations of 1 μM (data not shown).

[4] = system: human monocytes (RANTES-induced migration); test: RANTES-induced monocyte migration (micro-chemotaxis chamber); conditions: for IC50: Homo sapiens, Monocyte, ≦ 5% standard error, NA = not active; for activity as inhibitors of RANTES-induced migration: discussion of Table 1
Protocol: as §1, §3, §4, §2

[5] = target: T2, human CCR1; test: RANTES-induced CCR1/HEK-293 transfectant migration; conditions: for IC50: ≦ 5% standard error, NA = not active, read-out: IC50 (μM) RANTES-Induced CCRI/HEK Migration
Protocol: Human embryonic kidney cells 293 (HEK-293) transfected to express human CCR1, CCR3, or CCR5 receptors were cultured in Dulbecco's Modified Eagles Medium (DMEM, Biowhiftaker, Walkersville, Md.) containing 10% Fetal Bovine Serum (FBS, Hyclone, Logan, Utah), 2 mM glutamine and 100 U/ml penicillin and streptomycin (Quality Biologicals, Gaithersburg, Md.). Peripheral blood mononuclear cells were isolated from fresh normal donor apheresis packs by centrifugation over Ficoll.
as §2, with “magnification.” for “magnification. The results are reported as the average number of cells per high powered field at a given chemokine concentration±standard deviation.”

[6] = system: human monocytes (acetylated RANTES-induced migration); test: monocyte migration induced by acetylated (modified) RANTES; conditions: acetylated RANTES 50–1000 ng/mL, FIG. 6
Protocol: as §3, §4
as §2, with “deviation. […]” for “deviation.”

[7] = target: T2, human CCR1; test: MIP1β-induced migration of CCR1 transfectants; conditions: compound at 1 μM, data not shown
Protocol: as §1, §2, §5

[8] = system: human monocytes (MIP1-α-induced migration); test: MIP1-α-induced monocyte migration; conditions: compound at 1 μM, chemokine at 2.5 ng/ml, data not shown
Protocol: (§6) Monocyte chemotaxis was performed as previously described [Wang (1993) J. Immunol. 150:3022–3029]. Briefly, monocytes were resuspended in binding media (RPMI-1640 media containing 1% BSA, 25 mM HEPES, pH 8.0) at 1–2×10^6 cells/ml. […] Five micrometer polyvinyl-free polycarbonate membranes were placed over the chemokine mixtures. After the micro-chemotaxis chamber was assembled, 50 μl of cells were placed in the upper wells. The filled chemotaxis chambers were incubated in a humidified CO2 incubator for 90 minutes.
as §4
as §2, with “magnification.” for “magnification. The results are reported as the average number of cells per high powered field at a given chemokine concentration±standard deviation.”
(§7) It is noted that both MIP1-α and MIP1-β are ligands for CCR1, CCR5, and D6 (8).

[9] = system: human monocytes (MIP1-β-induced migration); test: MIP1-β-induced monocyte migration; conditions: compound at 1 μM, chemokine at 2.5 ng/ml, data not shown
Protocol: as §6, §4
as §2, with “magnification.” for “magnification. The results are reported as the average number of cells per high powered field at a given chemokine concentration±standard deviation.”
as §7

SMILES | inhibition of CCL11 (eotaxin) interaction with CCR3 [1] | IC50 [4] [µM] | IC50 [5] [µM] | activity as inhibitors of RANTES-induced migration [4] | also measured
CC(C)CCC[C@@H](C)[C@H]1CC[C@H]2[C@@H]3CC[C@H]4C[C@@H](CCC=C(c5cc(Cl)c(O)c(C(=O)O)c5)c5cc(Cl)c(O)c(C(=O)O)c5)CC[C@]4(C)[C@H]3CC[C@]12C [Compound 1, cosalane] | inhibit | 0.76 | 0.26 | – | block of MCP-4/CCR2-mediated monocyte migration [2]: block; inhibition of MIP1α-induced migration of CCR1 transfectants [3]: not inhibited; inhibition of the activity of modified (acetylated) RANTES to attract monocytes ([6]; 30 μM compound): not inhibited; inhibition of MIP1β-induced migration of CCR1 transfectants [7]: not inhibited
CC(C)CCCC(C)[C@H]1CCC2C3CCC4C[C@@H](CCC=C(c5cc(Cl)c(OCc6cccc(C(=O)O)c6)c(C(=O)O)c5)c5cc(Cl)c(OCc6cccc(C(=O)O)c6)c(C(=O)O)c5)CC[C@]4(C)C3CC[C@@]21C (stereo partly drawn) [Compound 2] | inhibit | 10 | 10 | retain activity | inhibition of MIP1-α-induced monocyte migration [8]: not reduced; inhibition of MIP1-β-induced monocyte migration [9]: very weak inhibitor; reduction in cell numbers, MIP1-β-induced monocyte migration [9]: less than 10%; block of MCP-4/CCR2-mediated monocyte migration [2]: block; inhibition of MIP1α-induced migration of CCR1 transfectants [3]: not inhibited; inhibition of MIP1β-induced migration of CCR1 transfectants [7]: not inhibited
CC(C)CCCC(C)C1CCC2C3CCC4CC(CCC=C(c5cc(Cl)c(OCc6ccc(C(=O)O)cc6)c(C(=O)O)c5)c5cc(Cl)c(OCc6ccc(C(=O)O)cc6)c(C(=O)O)c5)CCC4(C)C3CCC12C (stereo not drawn) [Compound 5] | – | – | – | inactive | inhibition of MIP1-α-induced monocyte migration [8]: neither MiP1-α- nor MIP1-β-induced monocyte migration was inhibited; inhibition of MIP1-β-induced monocyte migration [9]: neither MiP1-α- nor MIP1-β-induced monocyte migration was inhibited; inhibition of the activity of modified (acetylated) RANTES to attract monocytes ([6]; 10 μM compound): no statistical difference
CC(C)CCCC(C)[C@H]1CCC2C3CCC4C[C@@H](CCC=C(c5cc(Cl)c(OCc6ccc(-c7cccc(C(=O)O)c7)cc6)c(C(=O)O)c5)c5cc(Cl)c(OCc6ccc(-c7cccc(C(=O)O)c7)cc6)c(C(=O)O)c5)CC[C@]4(C)C3CC[C@@]21C (stereo partly drawn) [Compound 6] | – | 3 | 9.1 | retain activity | –
CC(C)CCCC(C)[C@H]1CCC2C3CCC4C[C@@H](CCC=C(c5cc(Cl)c(OCc6cccc([N+](=O)[O-])c6)c(C(=O)O)c5)c5cc(Cl)c(OCc6cccc([N+](=O)[O-])c6)c(C(=O)O)c5)CC[C@]4(C)C3CC[C@@]21C (stereo partly drawn) [Compound 7] | – | 3.5 | – | retain activity | pIC50 [5]: 5.24
CC(C)CCCC(C)[C@H]1CCC2C3CCC4C[C@@H](CCC=C(c5cc(Cl)c(OCc6cccc(B(O)O)c6)c(C(=O)O)c5)c5cc(Cl)c(OCc6cccc(B(O)O)c6)c(C(=O)O)c5)CC[C@]4(C)C3CC[C@@]21C (stereo partly drawn) [Compound 9] | inhibit | 2.2 | 4 | – | –
CC(C)CCCC(C)[C@H]1CCC2C3CCC4C[C@@H](CCC=C(c5cc(Cl)c(O)c(C(=O)NCC(=O)O)c5)c5cc(Cl)c(O)c(C(=O)NCC(=O)O)c5)CC[C@]4(C)C3CC[C@@]21C (stereo partly drawn) [Compound 12] | – | – | – | – | pIC50 [5]: 5.00
CSCC[C@H](NC(=O)c1cc(C(=CCC[C@H]2CC[C@@]3(C)C(CCC4C3CC[C@@]3(C)C4CC[C@@H]3C(C)CCCC(C)C)C2)c2cc(Cl)c(O)c(C(=O)N[C@@H](CCSC)C(=O)O)c2)cc(Cl)c1O)C(=O)O (stereo partly drawn) [Compound 15] | – | 0.82 | – | retained activity | –
